Data taken from patent publication US20040072824A1, “Methods and compositions for the treatment of cancer” (priority 2001, published 2004).
Where a name gives a salt, the structure may show the parent alone. Read-outs that look alike come from different tables or passages of the source.

Key:
[1] = system: blastic cells from AML patients; assay: Inhibition of viability of fresh leukemic cells (trypan blue exclusion); type: cell-based, human; details: Homo sapiens, day 3; for cytotoxicity at 10 µM: 10^-5 M; for cytotoxicity at 1 µM: 10^-6 M
Description: Samples for AML 1 through 5, AML 1 being the least and AML 5 being the most differentiated, were obtained. […] Cells were incubated with or without […] anti-histamine derivatives. Polaramine was included as a negative control. Cell counts were assessed by trypan blue exclusion test at day 3 after the incubation. Morphological analysis was performed using Wright-Giemsa staining on cytocentrifuge preparations. The results were expressed as % inhibition of growth as compared to negative control.

U937 = type: in vivo; details: for toxicity for the animals: mouse, in vivo; for tumor growth compared to the negative control: treatment from day 1, cells inoculated after more than 24 hours, daily administration
Description: The second protocol was designed to test the preventive effects of the compounds of this invention on tumorigenesis. In this protocol, the animals have been treated with various compounds of the present invention on day 1. After more than 24 hours, tumoral cells were inoculated. The administration of the compounds of this invention was maintained daily. The cell line used for this test was U937.

[2] = system: K562, U937, MDA-DB231, BT20 and MCF7 cell lines; assay: Cytotoxic effects in multi-well plate, 6 days, ATP level (CellTiter-Glo); details: 2x10^-9 M to 2x10^-4 M
Description: In order to test the cytotoxic effects of various compounds, a test was developed in a multi-well plate. Two leukemic cell lines, namely K562 and U937, and three breast cancer cell lines, namely MDA-DB231, BT20 and MCF7 were used for this test.
The cells were seeded at low density and were left for 24 hours to recover and reach a new logarithmic phase of growth. Various concentrations of the compounds being tested, ranging from 2×10^−9 M to 2×10^−4 M, were added in triplicate. The mixture was incubated for 6 days, during which approximately 4 doublings of the cell population occurred, to allow the cells to reach subconfluence.
The viability of the cultured cells after the treatment by the compounds was determined by quantifying the level of ATP since the level of ATP is directly proportional to the number of viable cells present in the culture. The ATP level was quantified by using CellTiter-Glo™ (Promega) luminescent test for cell viability.

[3] = system: MDA-MB-231 (breast cancer line); assay: Curative effects on palpable tumors, MDA-MB-231 cells in scid/scid mice; type: in vivo; details: for tumor growth: daily once tumors palpable, at least at the higher concentration tested; for death of test animals: higher dosage
Description: In this series of experiments, effects of various compounds of the present invention on tumor development were tested using two protocols. The first protocol is directed to the testing of curative effects of these compounds in different cell lines. In this protocol, cancerous cells are inoculated to the animals, and the inoculated animals were left without any further treatment until the development of tumors. As soon as the tumors became palable (4 mm^3), the compounds of this invention were administered daily to the animals.

U937 cells = assay: Antineoplastic activity, U937 cells injected in scid/scid mice, treatment from day 1; type: in vivo; details: 100 mg/kg; six mice
Description: Ten million U937 cells were subcutaneously injected into scid/scid mice. One injection was carried out per each of the 6 mice tested per set. The excipient or the compounds tested were administered intraperitoneally on day 1, i.e., the day of U937 cell line inoculation, of the experiment. The excipients or compounds were administered once daily. The tumor sizes were measured on day 5, day 8, day 12, day 14 and day 19 after the injection.

[4] = system: K562, U937, Jurkat, T47-D, MCF7, BT20 and 184B5 cell lines; assay: Cytotoxicity in malignant and immortalized cell lines (manual counting, Alamar assay); type: cell-based; details: all of the cell lines tested
Description: These four compounds were added at different concentrations to cultures of various malignant cell lines and normal cells. The cell lines used for these tests were the following:
All leukemic cell lines were grown and used in logarithmic phase. After one day of treatment, the cells were isolated, counted and diluted in a regular growth medium to provide the cell density of about 75×10^3 cells/ml for reading on plates at 48 hours after the treatment, and […] for reading at 144 hours after the treatment.
Several dilutions of each compound tested were added to the wells (12 wells per plate, TPP), and 1 ml of cells from the parent solution was added per well after a line had been completed. The dilutions were made using the culture medium, and following dilutions were tested: control, which contained no compound of this invention; 1:100; 1:1,000; 1:2,000; 1:5,000; and 1:10,000. The starting concentrations for these dilutions were: 50 mg/ml for compound A; 10 mg/ml for compound B; 25 mg/ml for compound C; and 5 mg/ml for compound D. The results were analyzed by manual counting and Alamar reduced assay.
The cells were grown on their respective propagation medium and seeded 24 hours before the compounds are added. The cells were trypsinized, and 50,000 cells/well and 10,000 cells/well were seeded in order to read the plates at 48 hours and 144 hours after being treated by the compounds, respectively.
On the day of the treatment, the medium was replaced by 10 ml each of series dilution of the compounds, consisting of: control, which contained no compound of this invention; 1:100 dilution; 1:1,000 dilution; 1:2,000 dilution; and 1:5,000 dilution. The starting concentrations for these dilutions were: 50 mg/ml for compound A; 10 mg/ml for compound B; 25 mg/ml for compound C; and 5 mg/ml for compound D. The dilution was made using the growth medium.
A tested compound is regarded as being active in cytotoxicity where the percentage of surviving cells after the treatment with the compound is less than 30%.

TCTP = TCTP expression in treated U937 cells (western blot); type: cell-based; details: 24 hours, various dilutions
Description: U937 cells were treated with various dilutions of hydroxyzine, brompheniramine and promethazine for 24 hours as denoted in FIG. 23A. Starting concentrations were: 50 mg/ml for […] (“A”); 10 mg/ml for brompheniramine (“B”); and 25 mg/ml for promethazine (“C”). The proteins were isolated from these cells and loaded onto a gel for western blot analysis. A specific anti-TCTP (anti-HRF) antibody was used to visualize the location of TCTP. […] The level of actin in equal loading of extract was visualized by antiactin antibody (Santa Cruz Biotechnology). No substantial difference between the level of actin in treated and untreated cells was observed.

[5] = 72 h, MEAN over AML patients, read-out: In Vitro Percent Inhibition of Viability, MEAN
[6] = 72 h, patient ID 3, FAB AML2, read-out: In Vitro Percent Inhibition of Viability
[7] = 72 h, patient ID 4, FAB AML2, read-out: In Vitro Percent Inhibition of Viability
[8] = 72 h, patient ID 5, FAB AML2, read-out: In Vitro Percent Inhibition of Viability
[9] = 72 h, patient ID 10, FAB AML4, read-out: In Vitro Percent Inhibition of Viability
[10] = 72 h, patient ID 11, FAB AML5, read-out: In Vitro Percent Inhibition of Viability
[11] = 72 h, patient ID 12, FAB AML5, read-out: In Vitro Percent Inhibition of Viability
[12] = 72 h, patient ID 13, FAB AML5, read-out: In Vitro Percent Inhibition of Viability
[13] = 72 h, patient ID 14, FAB AML5, read-out: In Vitro Percent Inhibition of Viability
[14] = 72 h, patient ID 15, FAB AML5, read-out: In Vitro Percent Inhibition of Viability
[15] = AML1, 72 h, patient ID 1, FAB AML1, read-out: In Vitro Percent Inhibition of Viability
[16] = AML1, 72 h, patient ID 2, FAB AML1, read-out: In Vitro Percent Inhibition of Viability
[17] = AML3, 72 h, patient ID 6, FAB AML3, read-out: In Vitro Percent Inhibition of Viability
[18] = AML3, 72 h, patient ID 7, FAB AML3, read-out: In Vitro Percent Inhibition of Viability
[19] = AML3, 72 h, patient ID 8, FAB AML3, read-out: In Vitro Percent Inhibition of Viability
[20] = AML3, 72 h, patient ID 9, FAB AML3, read-out: In Vitro Percent Inhibition of Viability

Row | Structure (SMILES) | cytotoxicity at 10 µM [1, 5] [%] | cytotoxicity at 1 µM [1, 5] [%] | cytotoxicity at 10 µM [1, 6] [%] | cytotoxicity at 1 µM [1, 6] [%] | cytotoxicity at 10 µM [1, 7] [%] | cytotoxicity at 1 µM [1, 7] [%] | cytotoxicity at 10 µM [1, 8] [%] | cytotoxicity at 1 µM [1, 8] [%] | cytotoxicity at 10 µM [1, 9] [%] | cytotoxicity at 1 µM [1, 9] [%] | cytotoxicity at 10 µM [1, 10] [%] | cytotoxicity at 1 µM [1, 10] [%] | cytotoxicity at 10 µM [1, 11] [%] | cytotoxicity at 10 µM [1, 12] [%] | cytotoxicity at 1 µM [1, 12] [%] | cytotoxicity at 10 µM [1, 13] [%] | cytotoxicity at 1 µM [1, 13] [%] | cytotoxicity at 10 µM [1, 14] [%] | cytotoxicity at 1 µM [1, 14] [%] | cytotoxicity at 10 µM [1, 15] [%] | other results
1 | Fc1ccc([C@@H]2CCNC[C@H]2COc2ccc3c(c2)OCO3)cc1 [A37, Paroxetine] | 55 | 24 | 67 | 25 | 62 | 21 | 43 | 6 | 50 | 39 | 32 | 39 | 76 | 53 | 53 | 33 | 35 | 41 | 9 | 50 | cytotoxicity at 1 µM [1, 15]: 0%; cytotoxicity at 10 µM [1, 16]: 41%; cytotoxicity at 1 µM [1, 16]: 25%; cytotoxicity at 10 µM [1, 17]: 54%; cytotoxicity at 1 µM [1, 17]: 19%; cytotoxicity at 10 µM [1, 18]: 63%; cytotoxicity at 1 µM [1, 18]: 3%; cytotoxicity at 10 µM [1, 19]: 56%; cytotoxicity at 1 µM [1, 19]: 12%; cytotoxicity at 10 µM [1, 20]: 97%; cytotoxicity at 1 µM [1, 20]: 53%; toxicity for the animals (U937): toxic for the animals; tumor growth compared to the negative control (U937): decrease in tumor growth; cytotoxic effect group [2]: I; tumor growth [3]: decreased tumor growth; death of test animals [3]: caused the death of certain test animals
2 | CC1=C(/C=C/C(C)=C/C=C/C(C)=C/C(=O)O)C(C)(C)CCC1 [ATRA, All Trans Retinoic Acid] | – | – | – | – | – | – | – | – | – | – | – | – | – | – | – | – | – | – | – | – | mice that developed a tumor (U937 cells): all six
3 | CN[C@H]1CC[C@@H](c2ccc(Cl)c(Cl)c2)c2ccccc21 [SQ42, sertraline] | 61 | 24 | 83 | 16 | 84 | 18 | 26 | 46 | 53 | 39 | 68 | 46 | 73 | 42 | 11 | 38 | 25 | 78 | 0 | 42 | cytotoxicity at 1 µM [1, 15]: 17%; cytotoxicity at 10 µM [1, 16]: 59%; cytotoxicity at 1 µM [1, 16]: 20%; cytotoxicity at 10 µM [1, 17]: 35%; cytotoxicity at 1 µM [1, 17]: 11%; cytotoxicity at 10 µM [1, 18]: 82%; cytotoxicity at 1 µM [1, 18]: 15%; cytotoxicity at 10 µM [1, 19]: 72%; cytotoxicity at 1 µM [1, 19]: 36%; cytotoxicity at 10 µM [1, 20]: 79%; cytotoxicity at 1 µM [1, 20]: 38%; toxicity for the animals (U937): toxic for the animals; tumor growth compared to the negative control (U937): decrease in tumor growth; cytotoxic effect group [2]: I; tumor growth [3]: decreased tumor growth; death of test animals [3]: caused the death of certain test animals
4 | CN(C)CCC(c1ccc(Br)cc1)c1ccccn1 (stereo not drawn) [brompheniramine, brompheniramine maleate] | – | – | – | – | – | – | – | – | – | – | – | – | – | – | – | – | – | – | – | – | cytotoxic activity [4]: little or no cytotoxic activity; expression of TCTP (TCTP): little effect
